Assay results reported in patent US8541588B2, “Sulfonamide derivatives” (Pfizer Limited, priority 2009, dated 2013).

What follows are compounds tested against T1, Nav1.7 (or SCN9A) channel; HEK cells stably transfected with hSCN9A (Homo sapiens, UniProt Q15858) (assay: Nav1.7 block, PatchXpress 7000 automated whole-cell voltage clamp, estimated IC50 (EIC50)). Settings: PatchXpress platform; hSCN9A HEK cells held at V1/2 of inactivation; estimated IC50.
T1 construct: expressed in transfected cells
T1 sequence (Q15858 whole entry): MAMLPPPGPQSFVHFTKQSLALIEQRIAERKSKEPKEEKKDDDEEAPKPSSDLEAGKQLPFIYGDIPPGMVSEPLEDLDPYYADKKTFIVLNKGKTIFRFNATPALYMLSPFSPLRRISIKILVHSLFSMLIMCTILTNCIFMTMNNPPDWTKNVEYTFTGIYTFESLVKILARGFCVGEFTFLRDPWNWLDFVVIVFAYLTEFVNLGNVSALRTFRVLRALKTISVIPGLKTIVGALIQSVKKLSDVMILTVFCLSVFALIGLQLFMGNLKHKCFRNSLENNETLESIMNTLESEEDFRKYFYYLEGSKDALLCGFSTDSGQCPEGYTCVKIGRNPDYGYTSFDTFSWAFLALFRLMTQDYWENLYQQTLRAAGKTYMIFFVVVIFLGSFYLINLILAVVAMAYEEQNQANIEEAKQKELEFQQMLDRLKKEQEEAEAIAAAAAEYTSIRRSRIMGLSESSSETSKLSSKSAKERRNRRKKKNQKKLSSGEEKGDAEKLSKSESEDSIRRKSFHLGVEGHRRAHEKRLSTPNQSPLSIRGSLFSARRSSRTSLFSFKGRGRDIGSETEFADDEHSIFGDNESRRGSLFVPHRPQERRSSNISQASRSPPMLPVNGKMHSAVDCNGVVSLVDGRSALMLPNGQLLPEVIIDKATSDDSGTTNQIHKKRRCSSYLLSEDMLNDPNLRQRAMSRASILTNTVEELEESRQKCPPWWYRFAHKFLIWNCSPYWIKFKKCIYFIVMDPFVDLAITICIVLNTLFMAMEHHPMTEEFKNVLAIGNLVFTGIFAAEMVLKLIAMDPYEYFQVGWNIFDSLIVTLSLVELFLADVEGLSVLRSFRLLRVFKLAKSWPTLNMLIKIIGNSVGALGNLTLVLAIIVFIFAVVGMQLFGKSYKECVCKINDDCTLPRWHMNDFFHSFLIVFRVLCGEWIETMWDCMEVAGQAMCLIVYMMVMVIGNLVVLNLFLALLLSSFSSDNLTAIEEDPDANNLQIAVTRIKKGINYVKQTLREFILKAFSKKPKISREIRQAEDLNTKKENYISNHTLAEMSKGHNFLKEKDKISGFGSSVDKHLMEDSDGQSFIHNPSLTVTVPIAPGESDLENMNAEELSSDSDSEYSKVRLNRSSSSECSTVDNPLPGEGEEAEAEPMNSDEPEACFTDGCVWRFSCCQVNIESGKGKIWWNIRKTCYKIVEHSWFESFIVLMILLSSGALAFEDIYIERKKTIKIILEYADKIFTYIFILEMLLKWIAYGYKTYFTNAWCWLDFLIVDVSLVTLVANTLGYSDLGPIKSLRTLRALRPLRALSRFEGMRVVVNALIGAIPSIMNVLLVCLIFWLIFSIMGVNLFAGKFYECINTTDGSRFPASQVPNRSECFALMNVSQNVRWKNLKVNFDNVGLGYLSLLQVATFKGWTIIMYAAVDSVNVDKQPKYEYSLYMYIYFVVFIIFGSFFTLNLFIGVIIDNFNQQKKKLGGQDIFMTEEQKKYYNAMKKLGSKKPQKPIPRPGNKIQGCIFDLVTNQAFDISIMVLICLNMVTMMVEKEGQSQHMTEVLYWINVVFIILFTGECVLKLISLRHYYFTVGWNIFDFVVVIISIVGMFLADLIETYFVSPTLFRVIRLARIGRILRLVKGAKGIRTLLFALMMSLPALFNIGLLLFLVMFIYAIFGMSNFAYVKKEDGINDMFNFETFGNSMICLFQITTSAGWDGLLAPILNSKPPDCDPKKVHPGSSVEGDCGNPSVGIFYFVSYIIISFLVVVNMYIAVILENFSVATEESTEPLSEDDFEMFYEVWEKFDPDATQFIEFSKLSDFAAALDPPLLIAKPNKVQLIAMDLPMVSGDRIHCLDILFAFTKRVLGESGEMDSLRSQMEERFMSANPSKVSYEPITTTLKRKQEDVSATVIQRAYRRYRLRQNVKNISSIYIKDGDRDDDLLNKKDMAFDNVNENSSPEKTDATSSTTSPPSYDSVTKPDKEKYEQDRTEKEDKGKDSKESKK
Assay type: cell-based
Compound `O=S(=O)(Nc1ncns1)c1ccc(Oc2ccccc2-c2ccccc2)c(C(F)(F)F)c1` [Example 205, 4-(biphenyl-2-yloxy)-N-1,2,4-thiadiazol-5-yl-3-(trifluoromethyl)benzenesulfonamide] has an IC50 of 330 nM. Compound `O=S(=O)(Nc1nccs1)c1ccc(Oc2cnn(Cc3ccc(Cl)cc3)c2)cc1F` [Example 206, 4-(1-(4-chlorobenzyl)-1H-pyrazol-4-yloxy)-2-fluoro-N-(thiazol-2-yl)benzenesulfonamide] has an IC50 of 1190 nM. For `COc1ccccc1-c1ccccc1Oc1ccc(S(=O)(=O)Nc2nccs2)c(F)c1` [Example 207, 2-fluoro-4-(2′-methoxybiphenyl-2-yloxy)-N-(thiazol-2-yl)benzenesulfonamide], the IC50 was 1030 nM. Compound `COc1ccccc1-c1ccccc1Oc1ccc(S(=O)(=O)Nc2nccs2)c(F)c1` [Example 208, 2-fluoro-4-(2′-methoxybiphenyl-2-yloxy)-N-(thiazol-2-yl)benzenesulfonamide] has an IC50 of 130 nM. `O=S(=O)(Nc1nccs1)c1ccc(Oc2ccc(-c3ccccc3)cc2)cc1F` [Example 209, 4-(biphenyl-4-yloxy)-2-fluoro-N-(thiazol-2-yl)benzenesulfonamide] showed an IC50 of 590 nM. `O=S(=O)(Nc1nccs1)c1ccc(Oc2cccc(-c3ccccc3)c2)cc1F` [Example 210, 4-(biphenyl-3-yloxy)-2-fluoro-N-(thiazol-2-yl)benzenesulfonamide] showed an IC50 of 1370 nM. `O=S(=O)(Nc1nccs1)c1ccc(Oc2ccc(Cl)cc2-c2ccnn2-c2ccccc2)cc1F` [Example 211, 4-(4-chloro-2-(1-phenyl-1H-pyrazol-5-yl)phenoxy)-2-fluoro-N-(thiazol-2-yl)benzenesulfonamide] was tested, and the IC50 was 110 nM. Work on `CC(C)(C)n1ccc(-c2cc(F)ccc2Oc2ccc(S(=O)(=O)Nc3nccs3)c(F)c2)n1` [Example 212, 4-(2-(1-tert-butyl-1H-pyrazol-3-yl)-4-fluorophenoxy)-2-fluoro-N-(thiazol-2-yl)benzenesulfonamide] yielded an IC50 of 15400 nM. Compound `O=S(=O)(Nc1nccs1)c1ccc(Oc2ccc(F)cc2-c2ccn[nH]2)cc1F` [Example 213, 2-fluoro-4-(4-fluoro-2-(1H-pyrazol-5-yl)phenoxy)-N-(thiazol-2-yl)benzenesulfonamide] has an IC50 of 1600 nM. `O=S(=O)(Nc1nccs1)c1ccc(Oc2nc(Cc3ccc(Cl)cc3)cs2)cc1F` [Example 214, 4-[4-(4-chloro-benzyl)-thiazol-2-yloxy]-2-fluoro-N-thiazol-2-yl-benzenesulfonamide] was tested, and the IC50 was 2410 nM. For `Cn1ccc(-c2cc(Cl)ccc2Oc2ccc(S(=O)(=O)Nc3nccs3)cc2F)n1` [Example 216, 4-(4-chloro-2-(1-methyl-1H-pyrazol-3-yl)phenoxy)-3-fluoro-N-(thiazol-2-yl)benzenesulfonamide], the IC50 was 910 nM. Compound `CC(C)(C)n1nccc1-c1cc(F)ccc1Oc1ccc(S(=O)(=O)Nc2nccs2)cc1F` [Example 217, 4-(2-(1-tert-butyl-1H-pyrazol-5-yl)-4-fluorophenoxy)-3-fluoro-N-(thiazol-2-yl)benzenesulfonamide] has an IC50 of 510 nM. With `O=S(=O)(Nc1nccs1)c1ccc(Oc2ccc(F)cc2-c2ccn[nH]2)c(F)c1` [Example 218, 3-fluoro-4-(4-fluoro-2-(1H-pyrazol-5-yl)phenoxy)-N-(thiazol-2-yl)benzenesulfonamide] the IC50 was 230 nM. `Cn1nccc1-c1cc(Cl)ccc1Oc1ccc(S(=O)(=O)Nc2nccs2)cc1F` [Example 219, 4-(4-chloro-2-(1-methyl-1H-pyrazol-5-yl)phenoxy)-3-fluoro-N-(thiazol-2-yl)benzenesulfonamide] showed an IC50 of 20 nM. With `O=S(=O)(Nc1nccs1)c1ccc(Oc2ccc(Cl)cc2-c2ccnn2Cc2ccccc2)c(F)c1` [Example 220, 4-(2-(1-benzyl-1H-pyrazol-5-yl)-4-chlorophenoxy)-3-fluoro-N-(thiazol-2-yl)benzenesulfonamide] the IC50 was 150 nM. Work on `CCOC(=O)Cn1nccc1-c1cc(F)ccc1Oc1ccc(S(=O)(=O)Nc2nccs2)cc1F` [Example 221, ethyl 2-(5-(5-fluoro-2-(2-fluoro-4-(N-thiazol-2-ylsulfamoyl)phenoxy)phenyl)-1H-pyrazol-1-yl)acetate] yielded an IC50 of 450 nM.
